“Also recorded” adds a separate entry of the source.
How the values were obtained:
[1] = system: mice treated with Coumadin and subjected to CHI; assay: Closed head injury (CHI) in mice anticoagulated with warfarin (Coumadin); assay type: in vivo, mouse; conditions: for extent of ICH post CHI after anticoagulation: warfarin prior to CHI
From the text: (§1) Closed Head Injury (CHI) Model
(§2) Head trauma was induced by using a modified weight-drop device, as previously described (Chen Y. et al. (1996) J. Neurotrauma, 13:557-568). Briefly, after induction of ether anesthesia, a midline longitudinal incision was made, the skin was retracted and the skull was exposed. The left anterior frontal area was identified and a Teflon tipped cone (2-mm diameter) was placed 1 mm lateral to the midline, in the midcoronal plane. The head was held in place manually and a 75-g weight was dropped on the cone from a height of 18 cm, resulting in focal injury to the left hemisphere. After trauma, the mice received supporting oxygenation with 95% 02 for no longer than 2 min and were then returned to their cages. In sham controls only anesthesia and skin incision were carried out.

[2] = system: WT mice subjected to CHI; assay: Closed head injury (CHI) model of TBI in WT mice; assay type: in vivo, mouse; conditions: WT mice, IV immediately after or 2 hrs after CHI, Hgb at 2 or 8 hrs, MRI at 24 hrs
Description: Eight to twelve weeks old C57 mice obtained from Harlan, Israel. Mice were administered standard laboratory chow and water ad libitum, and kept in controlled temperature and light conditions. Animal experiments were carried out according to the guidelines of the Hebrew University-Institutional Committee for Care and Use of Laboratory Animals, and with the committee's approval.
as §1, §2

[3] = system: tPA-/- and uPA-/- mice subjected to CHI; assay: Closed head injury (CHI) model in tPA-/- and uPA-/- mice; assay type: in vivo, mouse; conditions: 5 mg/kg each
From the text: as §1, §2

[4] = system: trauma patients; conditions: early administration of a short course (Ker K. ibid.); cited from earlier work
[5] = system: patients undergoing elective surgery; conditions: 53 studies, 3836 participants (Ker K. et al. 2012); cited from earlier work
[6] = biological target: T1, uPA (Homo sapiens, UniProt P00749); assay: Plasminogen activator activity, chromogenic assay without fibrin, activation by uPA; assay type: biochemical; conditions: plasminogen 500 nM, uPA 20 nM; mutants 100 nM or TA 200 nM alone; FIG. 2D
T1 construct: Single-chain urokinase (uPA) was purified, characterized as previously reported; made in house
Description: Plasminogen Activator Activity
Plasminogen activator activity was determined by adding tPA (50 nM) or uPA (20 nM), to a reaction mixture containing Glu-plasminogen and the plasmin chromogenic substrate Spectrazyme PL (100 μM) in phosphate-buffered saline (PBS) at 37° C., and the light absorbance at 405 nm was measured continuously over time. The initial velocities of plasmin generation at the different conditions were calculated from the change in the A405 nm over time. The initial velocity of the reaction at each plasminogen concentration was obtained by calculating the change in the rate of A405 over different time intervals and the results were expressed as the change in optical density (ΔOD) per minute, which represents the slope of the initial velocity of plasminogen activation (Higazi A et al., J Biol Chem. (1995), 270(29):17375-80).

Compound: CC(=O)CC(c1ccccc1)c1c(O)c2ccccc2oc1=O (stereo not drawn) [warfarin]
- extent of ICH post CHI after anticoagulation ([1]; WT mice): increased the extent of ICH
- mean INR at the time of trauma ([1]; mice anticoagulated with warfarin prior to CHI): 2.5
- extent of ICH post CHI after anticoagulation ([1]; tPA-/- or uPA-/- mice): had no such effect

Compound: WT-tPA: wild type tissue plasminogen activator; recombinant tPA from Genentech
- intracerebral hemorrhage (MRI, extravasation of Hgb) post CHI [2]: increased the extent of intracerebral hemorrhage
- intracerebral hemorrhage (MRI, extravasation of Hgb) post CHI ([2]; listed as WT tPA): exacerbated
- injury phenotype (ICH) of knock-out mice after exogenous plasminogen activator [3]: rescued

Compound: NC[C@H]1CC[C@H](C(=O)O)CC1 [TA, tranexamic acid, reference compound]
- death, vascular occlusive events and frequency of blood transfusions [4]: reduced death, vascular occlusive events and the frequency of blood transfusions
- need for blood transfusion [5]: reduced the need for blood transfusion by a third
- plasminogen activation by uPA in the absence of fibrin (change in OD per minute) [6]: dramatically stimulated; also recorded: mimics the effect of fibrin only in the case of uPA
